Values joined by “and” are separate entries in the source; they are usually repeats but may differ in a detail not shown here. Equal values may be shown once. “Also recorded” adds a separate entry of the source.
Experiments:
[1] = Radiation dosimetry of [^89Zr]Zr-PSMA-617 (QDOSE / IDAC 2.1); type: in vivo, human (patients); design: TIAC (time-integrated activity coefficient): unit not given here
Description: Each patient underwent PET/CT imaging scans at 4 time points: 1 h, 24 h, 48 h, and 72 h post intravenous injection (p.i.) of 111 ± 11 MBq (mean ± standard deviation, range 97–129 MBq) [^89Zr]Zr-PSMA-617. All PET/CT imaging was performed on a Biograph mCT 40 scanner (Siemens Medical Solutions, Knoxville, TN, USA) comprising whole-body PET/CT scans extending from vertex to mid-femur in 3D mode. PET acquisition time duration was 4 min per bed position on the initial day of injection and extended up to 10 min on the last day. CT data were acquired in low-dose technique using an X-ray tube voltage of […] and a modulation of the tube current (CARE Dose4D, Siemens Erlangen; maximal tube current 30 mA) followed by reconstruction with a soft tissue reconstruction kernel (B31f) to a slice thickness of 5 mm (increment 2–4 mm). PET emission data was corrected for decay, randoms, and scatter. PET image reconstruction was performed applying an iterative 3-dimensional ordered-subset expectation maximization (OSEM) algorithm (3 iterations; 24 subsets) with gaussian filtering to a transaxial resolution of 5 mm at full width half maximum (FWHM). The matrix and the pixel size were 200 × 200 and 3.0 mm, respectively. Attenuation correction was performed using the low-dose CT data.
Mean absorbed radiation doses were estimated using the QDOSE program package (ABX-CRO, Dresden, Germany) considering the following organs as source organs: kidneys, liver, spleen, salivary glands (parotid gland and submandibular gland), and lacrimal gland. As a first step, volumetric co-registration of the different time points was performed by taking the first CT scan as reference. PET images, which were coupled to the CT images of the respective imaging session, were transformed according to the CT transformation matrix. Boundary VOIs which solely enclosed the source organs without interfering with the activity concentration of neighboring structures were manually drawn in the PET image that allowed the best organ delineation and then copied onto all other time-point scans. Manual adjustment of the boundary VOI for each time point was done when necessary, using the respective CT. Volume and activity estimation were performed within the boundary applying a fuzzy locally adaptive Bayesian (FLAB) segmentation algorithm for automatic volume delineation. The next step comprised mono-exponential regression of the serial measured activities using weighted least squares method and estimation of both, the time integrated activities (TIA) and the time-integrated activity coefficients (TIAC) in the source regions. As an approximation, a linear increase from t = 0 to the first acquisition time point was assumed, and the integration method for the first time interval was based on the trapezoidal method. Between the first and the last time point, a trapezoidal integration was used, whereas the TIA from the last time-point to infinity was calculated analytically by applying the mono-exponential fitting curve. The respective TIACs (often termed residence time) of the source organs were calculated by normalizing the TIA to the amount of activity administered. The total body TIA was calculated approximately using the total FOV volume of interest and the injected activity. As a further approximation, constant activity between t = 0 and the first acquisition time point was assumed, and the integration method for the first-time interval was based on the trapezoidal method. Between the first time point and infinity, the TIA was calculated analytically by using the mono-exponential fitting curve. Estimations of absorbed organ dose and effective dose were performed by the IDAC 2.1 software which is implemented in QDOSE [25–27]. The IDAC reference man was applied for the kidneys, the spleen, the liver, the heart and the intestine, and the sphere model for the salivary and lacrimal glands. […]

[2] = Adverse event recording after [^89Zr]Zr-PSMA-617 PET/CT; type: in vivo, human (patients); details: 7 patients, 111 ± 11 MBq i.v., during examination and 4 weeks follow-up
Description: Any adverse event was recorded during and after examination. Vital parameters as heart rate, blood pressure, body temperature, and oxygen saturation were closely monitored. Within a time interval of 4 weeks after [^89Zr]Zr-PSMA-617 PET/CT, patients were additionally interviewed about potential side effects.

O=C([O-])CN1CCN(CC(=O)[O-])CCN(CC(=O)NCC2CCC(C(=O)NC(Cc3ccc4ccccc4c3)C(=O)NCCCCC(NC(=O)NC(CCC(=O)O)C(=O)O)C(=O)O)CC2)CCN(CC(=O)[O-])CC1.[89Zr+4] (stereo not drawn) [[^89Zr]Zr-PSMA-617]
Overall effective dose, times higher than PET with [^68Ga]Ga-PSMA-617 or [^68Ga]Ga-PSMA-11 ([1]; 111 MBq vs diagnostic activity of 200 MBq of the 68Ga tracers (ref 29, 30)): 2–3 times
Effective dose ([1]; average of 7 patients, mean ± SD): 0.0913 ± 0.0118 mSv/MBq
Absorbed doses of parotid glands and kidneys, times higher than [^68Ga]Ga-PSMA-617 and [^68Ga]Ga-PSMA-11 ([1]; in absolute numbers, comparators ref 29, 30): 3–4 times
TIAC (time-integrated activity coefficient) ([1]; kidneys, mean ± SD): 1.74 ± 0.44
l (rate constant) ([1]; kidneys, mean ± SD): 0.022 ± 0.002 h⁻¹
A (% injected A0), monoexponential curve-fitting parameter ([1]; kidneys, mean ± SD, n = 7 patients): 3.75 ± 1.24 % injected A0
Absorbed dose ([1]; kidneys, mean ± SD, IDAC 2.1): 0.517 ± 0.125 mGy/MBq
A (% injected A0), monoexponential curve-fitting parameter ([1]; lacrimal gland, mean ± SD): 0.02 ± 0.01 % injected A0
l (rate constant) ([1]; lacrimal gland, mean ± SD): 0.030 ± 0.006 h⁻¹
Absorbed dose ([1]; lacrimal gland, mean ± SD, sphere model): 0.156 ± 0.070 mGy/MBq
A (% injected A0), monoexponential curve-fitting parameter ([1]; liver, mean ± SD): 6.62 ± 1.39 % injected A0
TIAC (time-integrated activity coefficient) ([1]; liver, mean ± SD): 1.54 ± 0.49
l (rate constant) ([1]; liver, mean ± SD): 0.049 ± 0.014 h⁻¹
Absorbed dose ([1]; liver, mean ± SD, IDAC 2.1): 0.158 ± 0.051 mGy/MBq
A (% injected A0), monoexponential curve-fitting parameter ([1]; parotid gland, mean ± SD): 0.70 ± 0.20 % injected A0
TIAC (time-integrated activity coefficient) ([1]; parotid gland, mean ± SD): 0.31 ± 0.10
l (rate constant) ([1]; parotid gland, mean ± SD): 0.031 ± 0.005 h⁻¹
Absorbed dose ([1]; parotid gland, mean ± SD, sphere model): 0.601 ± 0.185 mGy/MBq
A (% injected A0), monoexponential curve-fitting parameter ([1]; spleen, mean ± SD): 1.25 ± 0.70 % injected A0
TIAC (time-integrated activity coefficient) ([1]; spleen, mean ± SD): 0.21 ± 0.12
l (rate constant) ([1]; spleen, mean ± SD): 0.079 ± 0.034 h⁻¹
Absorbed dose ([1]; spleen, mean ± SD, IDAC 2.1): 0.175 ± 0.068 mGy/MBq
A (% injected A0), monoexponential curve-fitting parameter ([1]; submandibular gland, mean ± SD): 0.27 ± 0.09 % injected A0
TIAC (time-integrated activity coefficient) ([1]; submandibular gland, mean ± SD): 0.13 ± 0.04
l (rate constant) ([1]; submandibular gland, mean ± SD): 0.029 ± 0.004 h⁻¹
Absorbed dose ([1]; submandibular gland, mean ± SD, sphere model): 0.468 ± 0.136 mGy/MBq and 0.468 ± 0.185 mGy/MBq
Side effects / adverse events [2]: not associated with any side effects; also recorded: no other side effects were observed

Source: paper PMC9606102, “[^89Zr]Zr-PSMA-617 PET/CT in biochemical recurrence of prostate cancer: first clinical experience from a pilot study including biodistribution and dose estimates” (European Journal of Nuclear Medicine and Molecular Imaging, 2022)
